Laboratory results from US8552176B2 (priority 2010, dated 2013).

Key:
Experiment in all cases: cells
Type in all cases: cell-based, human
DU-145 = conditions: read-out: GI50 DU-145 prostate
H1299 = conditions: read-out: GI50 H1299 lung (−p53)
HT29 = conditions: read-out: GI50 HT29 colorectal
HCT-15 = conditions: read-out: GI50 HCT-15 colorectal
A549 = conditions: read-out: GI50 A549 lung (+p53)
SF-268 = conditions: read-out: GI50 SF-268 CNS
MCF7 = conditions: read-out: GI50 MCF7 breast
SKOV3 = conditions: read-out: GI50 SKOV3 ovary
NCI-H460 = conditions: read-out: GI50 NCI-H460 lung
Hep3b = conditions: read-out: GI50 Hep3b liver

| Compound | GI50 (DU-145) [µM] | GI50 (H1299) [µM] | GI50 (HT29) [µM] | GI50 (HCT-15) [µM] | GI50 (A549) [µM] | GI50 (SF-268) [µM] | GI50 (MCF7) [µM] | GI50 (SKOV3) [µM] | GI50 (NCI-H460) [µM] | GI50 (Hep3b) [µM] |
| --- | --- | --- | --- | --- | --- | --- | --- | --- | --- | --- |
| CON(CCCCc1ccc(N(CCCl)CCCl)cc1)C1CC(O)C(O)C(CO)O1 (centres unmarked) [Compound 30] | 4.3 ± 0.3 | 0.58 ± 0.06 | 1.2 ± 0.2 | 0.7 ± 0.05 | 3.1 ± 0.5 | 2.5 ± 0.5 | 5.4 ± 0.1 | 1.12 ± 0.1 | 5.4 ± 0.6 | 3.7 ± 0.3 |
| CON(CCCCc1ccc(N(CCCl)CCCl)cc1)C1OCC(O)C(O)C1O (centres unmarked) [Compound 63] | 2.2 ± 0.1 | 0.93 ± 0.03 | 1.5 ± 0.1 | 0.83 ± 0.04 | 2.2 ± 0.1 | 1.5 ± 0.1 | 1.2 ± 0.2 | 2.4 ± 0.1 | 2.9 ± 0.3 | 1.6 ± 0.1 |
| CON(CCCCc1ccc(N(CCCl)CCCl)cc1)C1OC(C)C(O)C(O)C1O (mixture of isomers) [Compound 51] | 4.2 ± 0.1 | 3.7 ± 0.3 | 2.4 ± 0.1 | 2 ± 0.1 | 2.5 ± 0.1 | 1.9 ± 0.1 | 2.2 ± 0.2 | 2 ± 0.1 | 5.3 ± 0.4 | 2.6 ± 0.1 |
| CON(CCCCc1ccc(N(CCCl)CCCl)cc1)C1OC(CO)C(O)C(O)C1O (mixture of isomers) [Compound 10] | 5.8 ± 0.1 | 0.53 ± 0.05 | 0.6 ± 0.9 | 0.97 ± 0.07 | 3.4 | 3.1 ± 0.1 | 9.3 ± 0.7 | 3 ± 0.1 | 9.5 ± 0.7 | 4.4 ± 0.3 |
| N-Hydroxy-4-(4-N′,N′-bis(2-chloroethyl)amino)phenylbutylamino-D-threoside nitrone [Compound 70] | 3.6 ± 0.2 | 1.07 ± 0.08 | 3.2 ± 0.1 | 2.5 ± 0.1 | 3 ± 0.2 | 1.2 ± 0.1 | 2 ± 0.1 | 2.6 ± 0.1 | 3.8 ± 0.1 | 1.7 ± 0.1 |
| CON(CCCCc1ccc(N(CCCl)CCCl)cc1)C1OC(CO)C(O)C(O)C1O (mixture of isomers) [Compound 13] | 4.1 ± 0.1 | 1.3 ± 0.1 | 2.1 ± 0.2 | 1.4 ± 0.1 | 3.1 ± 0.2 | 2.3 ± 0.1 | 7.9 ± 0.8 | 2.5 ± 0.1 | 7.9 ± 0.5 | 2 ± 0.1 |
| CO[C@@H]1[C@@H](OC(N)=O)[C@@H](O)C(N(CCCCc2ccc(N(CCCl)CCCl)cc2)OC)OC1(C)C (some centres unmarked) [Compound 49] | 6.7 ± 0.5 | 1.3 ± 0.2 | 6 ± 0.1 | 1.7 ± 0.2 | 5.8 ± 0.8 | 5.1 ± 0.8 | 4.8 ± 0.9 | 5.4 ± 0.8 | 9.7 ± 0.5 | 6 ± 1 |
| O=C(CCCc1ccc(N(CCCl)CCCl)cc1)NNC1OC[C@@H](O)[C@H](O)[C@H]1O (stereo partly drawn) [Compound 75, 4-(4-N′,N′-bis(2-chloroethyl)amino)phenylbutylhydrazido-D-xyloside] | 19 ± 2 | 3.9 ± 0.2 | 7.2 ± 0.1 | > 100 | 14.8 ± 0.7 | 2.5 ± 0.1 | 4.5 ± 0.2 | 12 ± 0.5 | 26 ± 3 | 5.5 ± 0.4 |
| CON(CCCCc1ccc(N(CCCl)CCCl)cc1)C1OC(CO)C(O)C(O)C1O (mixture of isomers) [Compound 23] | 5.6 ± 0.3 | 1.3 ± 0.1 | 3.3 ± 0.4 | 2.4 ± 0.1 | 4.4 ± 0.4 | 1.9 ± 0.5 | 1.3 ± 0.2 | 3.4 ± 0.5 | 9.7 ± 0.8 | 3.6 ± 0.3 |
| CON(CCCCc1ccc(N(CCCl)CCCl)cc1)C1OC(CO)C(O)C(O)C1O (mixture of isomers) [Compound 44] | 4.9 ± 0.1 | 1.2 ± 0.1 | 3.4 ± 0.2 | 2.2 ± 0.1 | 4.1 ± 0.2 | 2 ± 0.1 | 2.2 ± 0.2 | 2.9 ± 0.1 | 9.8 ± 0.9 | 3.7 ± 0.2 |
| CON(CCCCc1ccc(N(CCCl)CCCl)cc1)[C@H]1O[C@H](CO)[C@H](O)[C@H](O)[C@@H]1O [Compound 58] | 3.3 ± 0.1 | 3 ± 0.3 | 1.8 ± 0.4 | 2.2 ± 0.1 | 2.6 ± 0.1 | 1.7 ± 0.1 | 1.5 ± 0.3 | 2 ± 0.1 | 5 ± 0.6 | 2.4 ± 0.1 |
| CON(CCCCc1ccc(N(CCCl)CCCl)cc1)C1OCC(O)C(O)C1O (mixture of isomers) [Compound 41] | 3.6 ± 0.1 | 0.76 ± 0.05 | 2 ± 0.1 | 0.79 ± 0.05 | 2.3 ± 0.1 | 1.6 ± 0.1 | 1 ± 0.2 | 1.8 ± 0.1 | 5.2 ± 0.4 | 2.5 ± 0.1 |
| CON(CCCCc1ccc(N(CCCl)CCCl)cc1)C1OCC(O)C(O)C1O (mixture of isomers) [Compound 15] | 3.6 ± 0.1 | 0.84 ± 0.04 | 1.9 ± 0.1 | 1 ± 0.05 | 2.3 ± 0.2 | 1.9 ± 0.1 | 5.4 ± 0.1 | 2.2 ± 0.1 | 6.1 ± 0.5 | 1.9 ± 0.1 |
| CON(CCCCc1ccc(N(CCCl)CCCl)cc1)C1OC(CO)C(O)C(O)C1O (mixture of isomers) [Compound 11] | 6 ± 0.1 | 1.3 ± 0.1 | 2.2 ± 0.1 | 1.7 ± 0.1 | 3.5 ± 0.2 | 3.2 ± 0.1 | 9 ± 0.7 | 3.1 ± 0.1 | 10.4 ± 0.8 | 2.5 ± 0.1 |
| CON(CCCCc1ccc(N(CCCl)CCCl)cc1)C1OC(CO)C(O)C(O)C1NC(C)=O (mixture of isomers) [Compound 45] | 16 ± 1 | 2.7 ± 0.2 | 8.7 ± 0.7 | 22 ± 2 | 21 ± 2 | 3.4 ± 0.2 | 9 ± 1 | 10.1 ± 0.9 | 33.3 ± 0.5 | 9.8 ± 0.7 |
| CON(CCCCc1ccc(N(CCCl)CCCl)cc1)C1OC(CO)C(O)C(O)C1NC(C)=O (mixture of isomers) [Compound 27] | 16.7 ± 0.7 | 3.8 ± 0.4 | 12 ± 1 | 19.1 ± 0.8 | 22 ± 1 | 4.2 ± 0.4 | 4.4 ± 0.6 | 11 ± 1 | 42 ± 3 | 11.8 ± 0.4 |
| CON(CCCCc1ccc(N(CCCl)CCCl)cc1)C1OCC(O)C(O)C1O (mixture of isomers) [Compound 14] | 3.3 ± 0.1 | 0.73 ± 0.03 | 1.5 ± 0.2 | 0.9 ± 0.04 | 2 ± 0.1 | 1.8 ± 0.1 | 4.6 ± 0.1 | 2 ± 0.1 | 5 ± 0.4 | 1.6 ± 0.1 |
| CON(CCCCc1ccc(N(CCCl)CCCl)cc1)C1OC(C(=O)O)C(O)C(O)C1O (mixture of isomers) [Compound 26] | 16.3 ± 0.5 | 4.9 ± 0.7 | 14.9 ± 0.1 | 8.1 ± 0.6 | 17.1 ± 0.8 | 8.9 ± 0.4 | 4.5 ± 0.5 | 12.8 ± 0.5 | 34 ± 2 | 14.7 ± 0.8 |
| CON(CCCCc1ccc(N(CCCl)CCCl)cc1)[C@@H]1O[C@H](CO[C@H]2O[C@H](CO)[C@H](O)[C@H](O)[C@H]2O)[C@@H](O)[C@H](O)[C@H]1O [Compound 47] | 36 ± 1 | 17.8 ± 0.06 | 27.4 ± 0.3 | 20 ± 1 | 40 ± 2 | 16.3 ± 0.5 | 21 ± 2 | 27 ± 1 | 45.5 ± 0.4 | 29 ± 3 |
| CON(CCCCc1ccc(N(CCCl)CCCl)cc1)C1OC(COCc2ccccc2)C(OCc2ccccc2)C1OCc1ccccc1 (centres unmarked) [Compound 16] | > 100 | > 100 | 47 ± 1 | 64 ± 8 | > 100 | 80 ± 5 | 82 ± 1 | > 100 | > 100 | > 100 |
| CON(CCCCc1ccc(N(CCCl)CCCl)cc1)C1OC(CO)C(O)C(O)C1O (mixture of isomers) [Compound 40] | 4.8 ± 0.1 | 0.55 ± 0.05 | 2.9 ± 0.1 | 0.88 ± 0.07 | 3.3 ± 0.2 | 2 ± 0.1 | 3.2 ± 0.3 | 2.5 ± 0.1 | 8 ± 0.7 | 3.9 ± 0.2 |
| CON(CCCCc1ccc(N(CCCl)CCCl)cc1)[C@@H]1O[C@H](CO)[C@@H](O)[C@H](O[C@H](C)C(=O)O)[C@H]1NC(C)=O [Compound 48] | 8.9 ± 0.3 | 2.4 ± 0.2 | 6.3 ± 0.3 | 3.1 ± 0.2 | 8.6 ± 0.6 | 4.1 ± 0.1 | 4.5 ± 0.3 | 7 ± 0.2 | 13.1 ± 0.3 | 8 ± 0.4 |
| C[C@H]1OC(N(O)CCCCc2ccc(N(CCCl)CCCl)cc2)[C@H](O)[C@@H](O)[C@H]1O (stereo partly drawn) [Compound 66, N-Hydroxy-4-(4-N′,N′-bis(2-chloroethyl)amino)phenylbutylamino-D-fucoside] | 5.7 ± 0.4 | 2.6 ± 0.1 | 4.6 ± 0.1 | 3.8 ± 0.3 | 6.4 ± 0.3 | 1.4 ± 0.1 | 2.7 ± 0.1 | 4.7 ± 0.1 | 4.9 ± 0.2 | 3.6 ± 0.3 |
| CON(CCCCc1ccc(N(CCCl)CCCl)cc1)C1OC(C)C(O)C(O)C1O (centres unmarked) [Compound 37] | 4.9 ± 0.1 | 1.8 ± 0.1 | 2.2 ± 0.2 | 1.1 ± 0.1 | 4.6 ± 0.2 | 2.9 ± 0.1 | 5.8 ± 0.1 |  | 8.5 ± 0.8 | 4.4 ± 0.3 |
